According to article PMC6905855, “Agonist-specific voltage-dependent gating of lysosomal two-pore Na^+ channels” (eLife, 2019):
Where “and” joins values, the source holds several entries; their conditions need not be identical. Equal values may be shown once.

Experiments:
hTPC1^R540I = test system: T1, hTPC1^R540I; experiment: Whole-endolysosome recordings of ITPC1-R540I; format: biochemical, human
T1 construct: expressed in transfected cells; host or cells: Cos1

TPC2^LL/AA = test system: T2, TPC2^LL/AA; experiment: Inside-out patch recordings of ITPC2; format: biochemical, human; conditions: for time course of LyNa-VA1.2-induced ITPC2: I/o
T2 construct: expressed in transfected cells; host or cells: HEK293

TPC2^N653G = test system: T3, TPC2^N653G; experiment: Whole-endolysosome recordings of ITPC2-N653G; format: biochemical, human; conditions: for PX / PNa, K+: TPC2 N653G, agonist-activated current
T3 construct: expressed in transfected cells

TPC2 I551R = test system: T4, TPC2 I551R; experiment: Whole-endolysosome recordings of ITPC2-I551R; format: biochemical, human
T4 construct: expressed in transfected cells

[1] = test system: non-transfected HEK293 cells; experiment: Whole-cell recordings in non-transfected cells; format: cell-based, Homo sapiens
Description: To our surprise, 5 out of the 23 compounds are well characterized as tri-cyclic anti-depressants (TCAs), which are believed to act on neurotransmitter transporters or voltage-gated Na^+ channels ([Cheng and Bahar, 2019]; [Pancrazio et al., 1998]). We therefore characterized the responses of TPC2 channels to TCAs in detail using electrophysiological methods. We first performed whole-cell recordings in HEK293 cells that were transfected with surface-expressed TPC2 mutant channels (TPC2-L^11L^12-AA; abbreviated as TPC2^LL/AA hereafter). No functional difference was noted between wild-type (WT) TPC2 and TPC2^LL/AA channels in terms of channel permeation and gating properties ([Wang et al., 2012]). To facilitate the detection of TPC2-specific currents, we used symmetric Na^+ solutions in the bath (extracellular) and pipette (cytosolic) solutions ([Wang et al., 2012]).
Whole-cell recordings were performed using pipette electrodes with resistance of 3–5 MΩ. […] All bath solutions were applied via a perfusion system that allowed complete solution exchange within a few seconds. Data were collected using an Axopatch 200A patch clamp amplifier, Digidata 1440, and pClamp 10.2 software (Axon Instruments). […] All experiments were conducted at room temperature (21–23°C), and all recordings were analyzed with pClamp 10.2, and Origin 8.0 (OriginLab, Northampton, MA).

[2] = inside out, 200 µM, individual recordings
[3] = inside-out, 200 µM, mean ± S.E.M

CN(C)CCCN1c2ccccc2CCc2ccc(Cl)cc21 [LyNa-VA1.1, Clomipramine]
effect on ITPC1-R540I (in words) (hTPC1^R540I): dramatic enhancement of inward currents at negative potentials

CNCCCN1c2ccccc2CCc2ccccc21 [LyNa-VA1.2, Desipramine]
activation of ITPC2 in inside-out patch (in words) (TPC2^LL/AA; 200 µM): evoked | time course of LyNa-VA1.2-induced ITPC2 (TPC2^LL/AA; time 0 s): -0.06927 | time course of LyNa-VA1.2-induced ITPC2 (TPC2^LL/AA; time 2 s): -0.0966 | time course of LyNa-VA1.2-induced ITPC2 (TPC2^LL/AA; time 4 s): -0.00941 | time course of LyNa-VA1.2-induced ITPC2 (TPC2^LL/AA; time 6 s): -8.49E-04 | time course of LyNa-VA1.2-induced ITPC2 (TPC2^LL/AA; time 8 s): -0.06407 | time course of LyNa-VA1.2-induced ITPC2 (TPC2^LL/AA; time 10 s): -0.08365 | time course of LyNa-VA1.2-induced ITPC2 (TPC2^LL/AA; time 12 s): -0.08538 | time course of LyNa-VA1.2-induced ITPC2 (TPC2^LL/AA; time 14 s): -0.09864 | time course of LyNa-VA1.2-induced ITPC2 (TPC2^LL/AA; time 16 s): -0.09741 | time course of LyNa-VA1.2-induced ITPC2 (TPC2^LL/AA; time 18 s): -0.1284 | time course of LyNa-VA1.2-induced ITPC2 (TPC2^LL/AA; time 20 s): -0.2599 | time course of LyNa-VA1.2-induced ITPC2 (TPC2^LL/AA; time 22 s): -0.3874 | time course of LyNa-VA1.2-induced ITPC2 (TPC2^LL/AA; time 24 s): -0.5101 | time course of LyNa-VA1.2-induced ITPC2 (TPC2^LL/AA; time 26 s): -0.54 | time course of LyNa-VA1.2-induced ITPC2 (TPC2^LL/AA; time 28 s): -0.5044 | time course of LyNa-VA1.2-induced ITPC2 (TPC2^LL/AA; time 30 s): -0.6046 | time course of LyNa-VA1.2-induced ITPC2 (TPC2^LL/AA; time 32 s): -0.6923 | time course of LyNa-VA1.2-induced ITPC2 (TPC2^LL/AA; time 34 s): -0.8892 | time course of LyNa-VA1.2-induced ITPC2 (TPC2^LL/AA; time 36 s): -0.754 | time course of LyNa-VA1.2-induced ITPC2 (TPC2^LL/AA; time 38 s): -0.8074 | time course of LyNa-VA1.2-induced ITPC2 (TPC2^LL/AA; time 40 s): -0.7387 | time course of LyNa-VA1.2-induced ITPC2 (TPC2^LL/AA; time 42 s): -0.8794 | time course of LyNa-VA1.2-induced ITPC2 (TPC2^LL/AA; time 44 s): -0.9937 | time course of LyNa-VA1.2-induced ITPC2 (TPC2^LL/AA; time 46 s): -1 | time course of LyNa-VA1.2-induced ITPC2 (TPC2^LL/AA; time 48 s): -0.9555 | time course of LyNa-VA1.2-induced ITPC2 (TPC2^LL/AA; time 50 s): -0.9211 | time course of LyNa-VA1.2-induced ITPC2 (TPC2^LL/AA; time 52 s): -0.87 | Latency of induced ITPC2 (TPC2^LL/AA; [2]): 8 s and 12 s and 14 s | Time constant (τ) of induced ITPC2 (TPC2^LL/AA; [2]): 13.9 s and 16.3 s and 17.9 s and 21.3 s | latency of TPC2 activation (TPC2^LL/AA; [3]): 12 ± 1 s | time constant (τ) of TPC2 activation (TPC2^LL/AA; [3]): 17 ± 2 s | activation of TPC2 N653G (in words) (TPC2^N653G): did not alter the ability of LyNa-VA1.2 to enhance channel activation | PX / PNa, K+ (TPC2^N653G; individual): 0.5576 and 0.6267 and 0.3361 and 0.4961 | PX / PNa, K+ (TPC2^N653G; mean): 0.5041 | activation of ITPC2-I551R (in words) (TPC2 I551R): failed to affect LyNa-VA1.2 activation

Nc1nc2ccc(OC(F)(F)F)cc2s1 [LyNA1, Riluzole]
activation of whole-cell currents in non-transfected cells (in words) [1]: not in non-transfected HEK293 cells
